The text below walks through data of patent US20080118493A1, “Elevated Hedgehog Pathway Activity In Digestive System Tumors, And Methods Of Treating Digestive Sytem Tumors Having Elevated Hedgehog Pathway Activity” (priority 2003, published 2008).

In series [1] the test system is single passage pancreatic cancer xenograft cells. The series can be described thus: Proliferation (MTS) assay in first passage pancreatic cancer xenograft cells. Type of series: cell-based, human. An excerpt: (§1) Cells and tissues: Origins and sources of cells and tissues are described in the Table (below). First passage pancreatic cancer xenografts were derived from freshly harvested pancreaticoduodenectomy specimens as described^14. […] After reaching 25 mm in greatest dimension, xenograft tumors were harvested, minced, and plated into tissue culture vessels in RPMI, 20% Fetal Bovine Serum (FBS) for assays as described below. The diagnosis of frozen samples from gastric and pancreatic adenocarcinoma resections and adjacent normal stomach and pancreas was microscopically confirmed by two pathologists, and RNA was prepared as described^14.

Series [2] deals with Hh pathway activity. The series can be described thus: Hh-inducible reporter assay in HuCCT1 cholangiocarcinoma cells. Type of series: cell-based, human. Particulars: purified SHH ligand to 25 nM. The procedure: (§2) Hh-responsive reporter assays: Hh-responsive firefly luciferase and control SV-40 Renilla luciferase reporter assays were performed on subconfluent triplicate cultures as described^22.
In general terms: In a reporter assay the amount or activity of a reporter protein is the signal.

The test system of series [3] is PZp53MED1 medulloblastoma cells. In words: Proliferation assay in medulloblastoma cells. Type of series: cell-based. Conditions: medulloblastoma cells from a mouse model of Gorlin syndrome, loss of PTCH function.
The subject of series [4] is Hh pathway activity. In words: Hh-responsive reporter assay in first passage pancreas carcinoma xenograft cells. Type of series: cell-based, human. Conditions: PTCH-expressing primary xenografts; 3.0 μM cyclopamine.
From the text: as §1, §2

In series [5] the test system is HuCCT1 human cholangiocarcinoma xenograft. In words: HuCCT1 xenograft treatment in athymic (nude) mice. Format: in vivo. Particulars: 50 mg/kg/day, subcutaneous injection.
Series [6] relates to tumor cell lines from esophagus, stomach, biliary tract, and pancreas. The series can be described thus: cells. As for the experimental part:
Viable cell mass was determined by optical density measurements at 490 nm (O.D.490) at 2 and 4 days using the CellTiter96® colorimetric assay (Promega; Madison Wis.). Relative growth was calculated as {OD (day 4)-OD (day 2)}/OD (day 2).

Series [7] has as its system PZp53MED1 medulloblastoma cells. Particulars: medulloblastoma-derived cells; cited from earlier work.

For “SHH ligand: recombinant doubly lipid modified Sonic hedgehog (ShhNp) peptide”, the “growth as a function of added SHH concentration” value in series [1] (PX184 cells with 5E1 at a level just sufficient to block growth (0.1 μg/ml)) was “Growth correlated positively with increasing concentrations”. Besides, in series [1] (single passage pancreatic tumor xenograft that did not express PTCH mRNA (PX169)), the growth result was “did not significantly affect growth”. Besides, the “augmentation of reporter activity” value in the series on Hh pathway activity [2] is “approximately 8 fold”. Further, the change in growth result in series [3] is on record as “No significant ligand-induced or antibody-induced change in growth”.
As for `CC1=C2C[C@H]3[C@@H](CC=C4C[C@@H](O)CC[C@@]43C)[C@@H]2CC[C@]12O[C@@H]1C[C@H](C)CN[C@H]1[C@H]2C` [cyclopamine], in the series on Hh pathway activity [4], the GLI reporter expression entry is “cyclopamine-sensitive”. Besides, the “survival and adverse reactions” value in series [5] (daily) is “all mice survived cyclopamine treatment without obvious adverse reactions”. In series [5] (within 14 days, tumors grown to 180 mm^3, n=9), the “tumor regression (xenograft tumor volume)” value is listed as “Complete or near complete regression of all nine treated tumors”. In series [6] (3.0 μM cyclopamine, MTS assay), the “significant growth inhibition, dependence on PTCH mRNA expression” value is listed as “only in tumor lines expressing PTCH mRNA”. For the same compound, the inhibition (as a rule, the change of the read-out against control, counted positive when it falls) at 3 µM in series [6] (Homo sapiens, read-out: growth inhibition) lay within 75 to 95%. The cell killing entry in series [7] is “can be killed by cyclopamine treatment”.
